{"source": "patent US8648042B2", "about": "“Pharmaceutical compositions” (priority 2011, dated 2014)", "key": {"[1]": {"details": "patients, intravenously before each fraction of radiation therapy; cited from earlier work"}, "pUC119 plasmid DNA": {"test_system": "pUC119 plasmid DNA", "assay": "Protection of plasmid DNA from H2O2 and UV exposure (electrophoresis)", "format": "biochemical", "details": "20 mM H2O2 + 20 mJ/m^2 UV; Amifostine 2000 μg/ml, GP-A 4000 μg/ml; FIG. 3", "experimental": "In this example, we examined the ability of GP-A in protecting plasmid DNA from hydrogen peroxide (H2O2) and UV exposure, which was also an indicator of the ability of quenching free radicals because free radicals tend to attack DNA structure. Amifostine, GP-Amifostine and GP were respectively dissolved in dd-water at various concentrations.\nThe above-nine experimental groups were then mixed with 3 μl loading dye for electrophoresis in order to observe the integrity of the plasmid DNA."}, "[2]": {"details": "cited from earlier work"}, "[3]": {"details": "NSCLC patients, chemoradiation therapy, Arm 2; cited from earlier work"}, "[4]": {"details": "cited from earlier work", "remark": "listed apart in the source"}}, "data": [{"smiles": "NCCCNCCSP(=O)(O)O", "note": "[Amifostine, S-2-(3-aminopropylamino)ethyl dihydrogen phosphorothioate]", "values": [{"measurement": "severity of acute and late xerostomia", "setting": "[1]", "result": "significant reduction"}, {"measurement": "protection ability against UV & H2O2 treated plasmid DNA", "setting": "pUC119 plasmid DNA", "result": "solid and slight protection ability"}, {"measurement": "protection of brain and spinal cord from radiation damage", "setting": "[2]; brain and spinal cord", "result": "not protected"}, {"measurement": "protection of normal tissues from radiation damage (factor)", "setting": "[2]; esophagus, lung, kidney, liver, bone marrow, immune system, skin, colon, small bowel, salivary gland, oral mucosa, testis", "result": "≤ 3"}, {"measurement": "distribution between normal tissues and tumors", "setting": "[2]; in vivo", "result": "selectively concentrated in normal tissues but passively absorbed by tumors"}, {"measurement": "sparing of tumors from the effects of radiation or chemotherapy", "setting": "[2]; tumors", "result": "no evidence that tumors were spared"}, {"measurement": "Median survival time", "setting": "[3]", "result": 19, "unit": "months"}, {"measurement": "discharge from a human body", "setting": "[4]; human", "result": "within one hour"}, {"measurement": "undesirable side-effects of systemic administration", "setting": "[4]; patients, systemic administration", "result": "nausea, vomiting, emesis and hypotension, as well as flushing or feeling of warmth, chills or feeling of coldness, dizziness, somnolence, hiccups and sneezing"}]}]}
